Like-named read-outs stand apart in the source and are kept apart here.
Key:
Format in all cases: cell-based, HCV
genotype 1a H77 replicon = test: microbe, parasite or virus in culture; conditions: Hepatitis C virus
Method: (§1) Evaluation of cell-based anti-HCV activity: Antiviral potency (EC50) was determined using a Renilla luciferase (RLuc)-based HCV replicon reporter assay. […] To perform the assay for genotype 2a (with M31 present in NS5A) or 2b, NS5A chimeric genotype 2a JFH-1 replicons that encodes a RLuc-Neo reporter and either genotype 2a J6 strain NS5A gene or genotype 2b MD2b-1 strain NS5A gene (both with M31 present) respectively, were either transiently transfected (t) into Huh-Lunet cells or were established as stably replicating replicon cells (s) is provided. Either cells were dispensed into 384-well plates for EC50 assays. To perform the assay for genotype 3 and 4, NS5A chimeric genotype 1b Con1 replicons that encodes a Pi-RLuc reporter and either genotype 3a S52 strain NS5A gene or genotype 4a ED43 strain NS5A gene respectively, were transiently transfected (t) into Huh-Lunet cells, which were subsequently dispensed into 384-well plates. Compounds were dissolved in DMSO at a concentration of 10 mM and diluted in DMSO either manually or using an automated pipeting instrument. Serially 3-fold diluted compounds were either manually mixed with cell culture media and added to the seeded cells or directly added to the cells using an automated instrument. […] 72 hours later, cells were lysed and Renilla luciferase activity quantified as recommended by the manufacturer (Promega-Madison, Wis.). Non-linear regression was performed to calculate EC50 values.

[1] = tested on: genotype 2a JFH-1 replicon (L31 present in NS5A); test: microbe, parasite or virus in culture; conditions: Hepatitis C virus, read-out: 2a JFH (nM)
Method: as §1

[2] = tested on: genotype 2b MD2b-1 strain NS5A gene (M31 present); test: microbe, parasite or virus in culture; conditions: Hepatitis C virus
Method: as §1

[3] = tested on: genotype 2a J6 strain NS5A gene (M31 present); test: Replicon assay, NS5A chimeric 2a JFH-1 replicon with 2a J6 NS5A, transient (t) or stable (s), Huh-Lunet cells; conditions: Hepatitis C virus
Method: as §1

Q30R in genotype 1a NS5A = test: Antiviral potency against resistance mutant, 1a Pi-Rluc replicon in Huh-7-derived cured-51 cells; conditions: Hepatitis C virus
Method: as §1
To determine the antiviral potency (EC50) against resistance mutants, resistance mutations, including M28T, Q30R, Q30H, L31M, and Y93C in genotype 1a NS5A and Y93H in genotype 1b NS5A, were introduced individually into either 1a Pi-Rluc or 1b Pi-Rluc replicons by site directed mutagenesis. Replicon RNA of each resistant mutant was transiently transfected into Huh-7-derived cured-51 cells and antiviral potency was determined on these transfected cells as described above.

[4] = tested on: genotype 2a JFH-1 replicon (L31 present in NS5A); test: microbe, parasite or virus in culture; conditions: Hepatitis C virus, read-out: 2a JFH
[5] = tested on: genotype 3a S52 strain NS5A gene; test: Replicon assay, NS5A chimeric 1b Con1 replicon with 3a NS5A, transiently transfected Huh-Lunet cells; conditions: Hepatitis C virus
Method: as §1

[6] = tested on: genotype 4a ED43 strain NS5A gene; test: Replicon assay, NS5A chimeric 1b Con1 replicon with 4a NS5A, transiently transfected Huh-Lunet cells; conditions: Hepatitis C virus
Method: as §1, with “[…],” for “were transiently transfected (t) into Huh-Lunet cells,”

Compound | EC50 (genotype 1a H77 replicon; read-out: 1a) [nM] | EC50 [1] [nM] | EC50 ([2]; read-out: 2b) [nM] | EC50 ([3]; read-out: 2a J6) [nM] | EC50 (Q30R in genotype 1a NS5A; read-out: 1a Q30R) [nM] | EC50 [4] [nM] | EC50 ([5]; read-out: 3a) [nM] | EC50 (genotype 1a H77 replicon; read-out: 1a (nM)) [nM] | EC50 ([2]; read-out: 2b (t) (nM)) [nM] | EC50 ([3]; read-out: 2a J6 (t) (nM)) [nM] | EC50 (Q30R in genotype 1a NS5A; read-out: 1a Q30R (nM)) [nM] | EC50 ([5]; read-out: 3a (nM)) [nM] | EC50 ([2]; read-out: 2b (s) (nM)) [nM] | EC50 ([6]; read-out: 4a) [nM] | EC50 ([6]; read-out: 4a (s) (nM)) [nM]
CC[C@@H](C)[C@H](NC(=O)OC)C(=O)N1C[C@@H](C)C[C@H]1c1ncc(-c2ccc3c(c2)COc2cc4c(ccc5nc([C@@H]6C[C@H](COC)CN6C(=O)[C@H](NC(=O)OC)c6ccccc6)[nH]c54)cc2-3)[nH]1 [Example QB, Methyl {(1R)-2-[(2S,4S)-2-(9-{2-[(2S,4S)-1-{(2S,3R)-2-[(methoxycarbonyl)amino]-3-methylpentanoyl}-4-methylpyrrolidin-2-yl]-1H-imidazol-5-yl}-1,11-dihydroisochromeno[4′,3′:6,7]naphtho[1,2-d]imidazol-2-yl)-4-(methoxymethyl)pyrrolidin-1-yl]-2-oxo-1-phenylethyl}carbamate] | < 1 | 0.008 | < 1 | < 1 | < 1 | < 1 | < 1 | – | – | – | – | – | – | – | –
COC[C@H]1C[C@@H](c2ncc(-c3ccc4c(c3)COc3cc5c(ccc6nc([C@@H]7CCCN7C(=O)[C@H](NC(=O)OC)c7ccccc7)[nH]c65)cc3-4)[nH]2)N(C(=O)[C@@H](NC(=O)OC)C(C)C)C1 [Example PH, methyl {(2S)-1-[(2S,4S)-2-(5-{2-[(2S)-1-{(2R)-2-[(methoxycarbonyl)amino]-2-phenylacetyl}pyrrolidin-2-yl]-1,11-dihydroisochromeno[4′,3′:6,7]naphtho[1,2-d]imidazol-9-yl}-1H-imidazol-2-yl)-4-(methoxymethyl)pyrrolidin-1-yl]-3-methyl-1-oxobutan-2-yl}carbamate] | < 1 | 0.014 | < 1 | < 1 | < 1 | < 1 | < 1 | 0.024 | 0.042 | 0.055 | 0.051 | 0.029 | – | – | –
CCC(C)[C@H](NC(=O)OC)C(=O)N1C[C@@H](C)CC1c1ncc(-c2ccc3c(c2)COc2cc4c(ccc5nc([C@@H]6C[C@H](COC)CN6C(=O)[C@@H](NC(=O)OC)C(C)C)[nH]c54)cc2-3)[nH]1 (stereo in doubt) [Example QC, Methyl {(2S)-1-[(2S,4S)-2-(9-{2-[(2S,4S)-1-{(2S,3R)-2-[(methoxycarbonyl)amino]-3-methylpentanoyl}-4-methylpyrrolidin-2-yl]-1H-imidazol-5-yl}-1,11-dihydroisochromeno[4′,3′:6,7]naphtho[1,2-d]imidazol-2-yl)-4-(methoxymethyl)pyrrolidin-1-yl]-3-methyl-1-oxobutan-2-yl}carbamate] | < 1 | 0.008 | < 1 | < 1 | – | < 1 | – | – | – | – | – | – | – | – | –
COC[C@H]1CC(c2ncc(-c3ccc4c(c3)COc3cc5c(ccc6nc([C@@H]7CC[C@H](C)N7C(=O)[C@@H](NC(=O)OC)C(C)C)[nH]c65)cc3-4)[nH]2)N(C(=O)[C@@H](NC(=O)OC)C(C)OC)C1 (stereo in doubt) [Example QA, Methyl {(2S)-1-[(2S,5S)-2-(9-{2-[(2S,4S)-1-{(2S,3S)-3-methoxy-2-[(methoxycarbonyl)amino]butanoyl}-4-(methoxymethyl)pyrrolidin-2-yl]-1H-imidazol-5-yl}-1,11-dihydroisochromeno[4′,3′:6,7]naphtho[1,2-d]imidazol-2-yl)-5-methylpyrrolidin-1-yl]-3-methyl-1-oxobutan-2-yl}carbamate] | < 1 | 0.007 | < 1 | < 1 | < 1 | < 1 | < 1 | – | – | – | – | – | 0.04 | – | –
COC(=O)N[C@H](C(=O)N1CCC[C@H]1c1ncc(-c2ccc3c(c2)COc2cc4c(cc2-3)CCc2[nH]c([C@@H]3CCCN3C(=O)[C@H](NC(=O)OC)c3ccccc3)nc2-4)[nH]1)C(C)C [Example MG] | < 1 | – | < 1 | < 1 | < 1 | < 1 | < 1 | – | – | – | – | 0.01 | 0.07 | < 1 | 0.08
COC[C@H]1C[C@@H](c2nc3ccc4cc5c(cc4c3[nH]2)OCc2cc(-c3cnc([C@@H]4CCCN4C(=O)[C@H](NC(=O)OC)c4ccccc4)[nH]3)ccc2-5)N(C(=O)[C@@H](NC(=O)OC)C(C)OC)C1 (stereo partly drawn) [Example OU, Methyl {(1R)-2-[(2S)-2-(5-{2-[(2S,4S)-1-{(2S)-2-[(methoxycarbonyl)amino]-3-methoxybutanoyl}-4-(methoxymethyl)pyrrolidin-2-yl]-1,11-dihydroisochromeno[4′,3′:6,7]naphtho[1,2-d]imidazol-9-yl}-1H-imidazol-2-yl)pyrrolidin-1-yl]-2-oxo-1-phenylethyl}carbamate] | < 1 | – | < 1 | – | – | < 1 | – | – | – | – | – | – | – | – | –
COC(=O)N[C@H](C(=O)N1CCC[C@H]1c1nc2c(ccc3cc4c(cc32)OCc2cc(-c3cnc([C@@H]5CCCN5C(=O)[C@H](NC(=O)OC)c5ccccc5)[nH]3)ccc2-4)[nH]1)C(C)C [Example MD] | < 1 | 0.006 | < 1 | < 1 | < 1 | < 1 | < 1 | – | – | – | – | 0.006 | – | < 1 | –
CC[C@@H](C)C(NC(=O)OC)C(=O)N1C[C@@H](COC)C[C@H]1c1nc2ccc3cc4c(cc3c2[nH]1)OCc1cc(-c2cnc([C@@H]3C[C@H](C)CN3C(=O)[C@@H](NC(=O)OC)[C@H](C)CC)[nH]2)ccc1-4 (stereo partly drawn) [Example QE, Methyl {(3R)-1-[(2S,4S)-2-(9-{2-[(2S,4S)-1-{(2S,3R)-2-[(methoxycarbonyl)amino]-3-methylpentanoyl}-4-methylpyrrolidin-2-yl]-1H-imidazol-5-yl}-1,11-dihydroisochromeno[4′,3′:6,7]naphtho[1,2-d]imidazol-2-yl)-4-(methoxymethyl)pyrrolidin-1-yl]-3-methyl-1-oxopentan-2-yl}carbamate] | < 1 | – | < 1 | < 1 | – | < 1 | – | – | – | – | – | – | – | – | –
COC(=O)N[C@H](C(=O)N1CCC[C@H]1c1nc2c([nH]1)CCc1cc3c(cc1-2)OCc1cc(-c2cnc([C@@H]4CCCN4C(=O)[C@H](NC(=O)OC)c4ccccc4)[nH]2)ccc1-3)C(C)C [Example MF, methyl [1-(2-{5-[2-(1-{[(methoxycarbonyl)amino]-3-methyl-1-oxobutan-2-yl}pyrrolidin-2-yl)-1,4,5,11-tetrahydroisochromeno[4′,3′:6,7]naphtho[1,2-d]imidazol-9-yl]-1H-imidazol-2-yl}pyrrolidin-1-yl)-phenyl-1-oxoacet-2-yl]carbamate] | < 1 | – | < 1 | < 1 | < 1 | < 1 | < 1 | – | – | – | – | – | – | < 1 | –

Source: patent US9221833B2, “Antiviral compounds” (GILEAD PHARMASSET LLC, priority 2011, dated 2015)
